Experimental data as given in ChEMBL document CHEMBL3885881, “DrugMatrix”.

Species: Rattus norvegicus
Test: DrugMatrix - Regimen: Daily Repeat
Type: toxicity, organism-based, Sprague-Dawley
Set-up: regimen Daily Repeat, gender Male, age 6-8 weeks
Settings: in vivo, po, route oral GAVAGE, vehicle 100 % WATER; for BASOPHIL / EOSINOPHIL / ERYTHROCYTE COUNT / HEMATOCRIT / HEMOGLOBIN / LEUKOCYTE COUNT / LYMPHOCYTE / MEAN CORPUSCULAR HEMOGLOBIN / MEAN CORPUSCULAR HEMOGLOBIN CONCENTRATION / MEAN CORPUSCULAR VOLUME / MONOCYTE / NEUTROPHIL / PLATELET COUNT: tissue Blood; for ALANINE AMINOTRANSFERASE / ALBUMIN / ALKALINE PHOSPHATASE / ASPARTATE AMINOTRANSFERASE / BLOOD UREA NITROGEN / CHLORIDE / CHOLESTEROL / CREATINE PHOSPHOKINASE / CREATININE / GLUCOSE / PHOSPHORUS / POTASSIUM / SODIUM / TOTAL BILIRUBIN / TOTAL PROTEIN: tissue Plasma
[1] = 100 mg/kg, 120 h, dose level Low, time 5 day
[2] = 1000 mg/kg, 72 h, dose level High, time 3 day
[3] = 1000 mg/kg, 120 h, dose level High, time 5 day

SMILES: Oc1cccc(O)c1O [PYROGALLOL]
- BASOPHIL [1]: 0%
- EOSINOPHIL [1]: 0%
- ERYTHROCYTE COUNT [1]: 6.06 x10E6/uL
- HEMATOCRIT [1]: 36.63%
- HEMOGLOBIN [1]: 14.83 G/DL
- LEUKOCYTE COUNT [1]: 14.27 x10E3/uL
- LYMPHOCYTE [1]: 90.67%
- MEAN CORPUSCULAR HEMOGLOBIN [1]: 24.53 pg
- MEAN CORPUSCULAR HEMOGLOBIN CONCENTRATION [1]: 40.53 G/DL
- MEAN CORPUSCULAR VOLUME [1]: 60.5 fL
- MONOCYTE [1]: 2.33%
- NEUTROPHIL [1]: 7%
- PLATELET COUNT [1]: 1156 x10E3/uL
- ALANINE AMINOTRANSFERASE [1]: 34.67 u/L
- ALBUMIN [1]: 3.8 G/DL
- ALKALINE PHOSPHATASE [1]: 375.67 u/L
- ASPARTATE AMINOTRANSFERASE [1]: 59 u/L
- BLOOD UREA NITROGEN [1]: 14 mg/dL
- CHLORIDE [1]: 103.67 MEQ/L
- CHOLESTEROL [1]: 67.33 mg/dL
- CREATINE PHOSPHOKINASE [1]: 95.67 u/L
- CREATININE [1]: 0.6 mg/dL
- GLUCOSE [1]: 184.67 mg/dL
- PHOSPHORUS [1]: 11.97 mg/dL
- POTASSIUM [1]: 6.8 MEQ/L
- SODIUM [1]: 151.67 MEQ/L
- TOTAL BILIRUBIN [1]: 0.5 mg/dL
- TOTAL PROTEIN [1]: 6.87 G/DL
- BASOPHIL [2]: 0%
- EOSINOPHIL [2]: 0.67%
- ERYTHROCYTE COUNT [2]: 4.74 x10E6/uL
- HEMATOCRIT [2]: 27.07%
- HEMOGLOBIN [2]: 11.3 G/DL
- LEUKOCYTE COUNT [2]: 18.97 x10E3/uL
- LYMPHOCYTE [2]: 64%
- MEAN CORPUSCULAR HEMOGLOBIN [2]: 23.87 pg
- MEAN CORPUSCULAR HEMOGLOBIN CONCENTRATION [2]: 41.93 G/DL
- MEAN CORPUSCULAR VOLUME [2]: 57.07 fL
- MONOCYTE [2]: 1%
- NEUTROPHIL [2]: 34.33%
- PLATELET COUNT [2]: 1411 x10E3/uL
- ALANINE AMINOTRANSFERASE [2]: 107.67 u/L
- ALBUMIN [2]: 3.83 G/DL
- ALKALINE PHOSPHATASE [2]: 223 u/L
- ASPARTATE AMINOTRANSFERASE [2]: 109.33 u/L
- BLOOD UREA NITROGEN [2]: 10.33 mg/dL
- CHLORIDE [2]: 101.67 MEQ/L
- CHOLESTEROL [2]: 67.33 mg/dL
- CREATINE PHOSPHOKINASE [2]: 171 u/L
- CREATININE [2]: 0.63 mg/dL
- GLUCOSE [2]: 206.33 mg/dL
- PHOSPHORUS [2]: 12.3 mg/dL
- POTASSIUM [2]: 6.63 MEQ/L
- SODIUM [2]: 149 MEQ/L
- TOTAL BILIRUBIN [2]: 1.13 mg/dL
- TOTAL PROTEIN [2]: 6.83 G/DL
- BASOPHIL [3]: 0%
- EOSINOPHIL [3]: 0%
- ERYTHROCYTE COUNT [3]: 3.96 x10E6/uL
- HEMATOCRIT [3]: 24.15%
- HEMOGLOBIN [3]: 9.8 G/DL
- LEUKOCYTE COUNT [3]: 13 x10E3/uL
- LYMPHOCYTE [3]: 85.5%
- MEAN CORPUSCULAR HEMOGLOBIN [3]: 24.9 pg
- MEAN CORPUSCULAR HEMOGLOBIN CONCENTRATION [3]: 40.55 G/DL
- MEAN CORPUSCULAR VOLUME [3]: 61.35 fL
- MONOCYTE [3]: 2.5%
- NEUTROPHIL [3]: 12%
- PLATELET COUNT [3]: 1586 x10E3/uL
- ALANINE AMINOTRANSFERASE [3]: 45 u/L
- ALBUMIN [3]: 3.85 G/DL
- ALKALINE PHOSPHATASE [3]: 303 u/L
- ASPARTATE AMINOTRANSFERASE [3]: 67 u/L
- BLOOD UREA NITROGEN [3]: 12 mg/dL
- CHLORIDE [3]: 105 MEQ/L
- CHOLESTEROL [3]: 49.5 mg/dL
- CREATINE PHOSPHOKINASE [3]: 75 u/L
- CREATININE [3]: 0.45 mg/dL
- GLUCOSE [3]: 223.5 mg/dL
- PHOSPHORUS [3]: 12.75 mg/dL
- POTASSIUM [3]: 7.2 MEQ/L
- SODIUM [3]: 148.5 MEQ/L
- TOTAL BILIRUBIN [3]: 0.9 mg/dL
- TOTAL PROTEIN [3]: 7.05 G/DL
